The results in this text go back to patent US5202339A, “Hydantoin derivatives” (Mochida Pharmaceutical Co., Ltd., priority 1987, dated 1993).

pIC50: −log10 of the molar value. “Also recorded” adds a separate entry of the source.

Data set [1] concerns the target T1, rat lens aldose reductase (Rattus norvegicus, UniProt P07943).
T1 construct: rat lens aldose reductase; from tissue; host or cells: rat lens
In words: inhibitory activity on rat lens aldose reductase (Experimental Example 1). To be noted: for pIC50: pH 6.2, 10 mM DL-glyceraldehyde, 0.16 mM NADPH; for potency relative to reference compound A: ratio in words. It is filed as biochemical. The procedure: The inhibitory activities of hydantoin derivatives on rat lens aldose reductase were measured according to the procedure of Inagaki et al. (K. Inagaki et al., Arch. Biochem. Biophys., 216, 337 (1982)) with slight modifications. Assays were performed in 0.1M phosphate buffer (pH 6.2) containing 0.4M ammonium sulfate, 10 mM DL-glyceraldehyde, 0.16 mM nicotinamide adenine dinucleotide phosphate, reduced form (NADPH) and aldose reductase (0.010-0.016 units) in a total volume of 1.0 ml. To this mixture was added 10 μl of the solution of each hydantoin derivative to be tested, and the decrease in absorbance at 340 nm was measured with a spectrophotometer.
The concentrations of typical hydantoin derivatives of the present invention required to produce 50% inhibition are shown in table 1.

In data set [2] the test system is Streptozotocin-Diabetic Rats. In words: Hypoglycemic Effects in Streptozotocin-Diabetic Rats (Experimental Example 4). It is filed as in vivo, rat (male Wistar). The following applies: STZ-diabetic rats, 100 mg/kg oral; for inhibition in vivo at 100 mg/kg: Rattus norvegicus, 6 hrs after administration, read-out: Lowering rate of serum glucose (%). The method, then:
(§1) Diabetic rats were produced according to the method of Junod et al. (A. Junod et al., J. Clin. Invest., 48, 2129 (1969)). Briefly, male Wistar rats were given 26.5 mg/kg of streptozotocin (STZ) intravenously. Four days later, the rats with serum glucose levels of between 400 and 500 mg/dl were used. After being fasted for 4 hrs, groups of 5 diabetic rats were orally administered with the compounds of the present invention or gliclazide in a dose of 100 mg/kg. Blood sample were collected from the orbital vein before and 6 hrs after the administration. Serum glucose levels were determined by the enzymatic method with an autoanalyzer (Cobas Fara®, Roche).

A further data set deals with ICR strain mice. In words: acute toxicity in mice (Experimental Example 3). It is filed as in vivo. To be noted: 1 g/kg, oral, groups of 5 ICR mice. From the text: Hydantoin derivatives of the present invention were examined for acute toxicity.
The target of data set [3] is T2, bovine lens aldose reductase (Bos taurus, UniProt P16116).
T2 construct: bovine lens aldose reductase preparation was used; from tissue; host or cells: bovine lens
Briefly: inhibitory activity on bovine lens aldose reductase (Experimental Example 2). Type of data set: biochemical. To be noted: for pIC50: pH 6.2, 10 mM DL-glyceraldehyde, 0.16 mM NADPH. The method, then: Assays were performed in 0.1M phosphate buffer (pH 6.2) containing 0.4M ammonium sulfate, 10 mM DL-glyceraldehyde, 0.16 mM nicotinamide adenine dinucleotide phosphate, reduced form (NADPH) and aldose reductase (0.010-0.016 units) in a total volume of 1.0 ml. To this mixture was added 10 μl of the solution of each hydantoin derivative to be tested, and the decrease in absorbance at 340 nm was measured with a spectrophotometer.

The subject of data set [4] is Streptozotocin-Diabetic Rats. In words: Ketone Body Lowering Effects in Streptozotocin-Diabetic Rats (Experimental Example 5). To be noted: STZ-diabetic rats, oral for 2 weeks. Type of data set: in vivo, rat (male Wistar). The method, then: as §1
(§2) Diabetic rats were produced according to the method described previously. Groups of 5 diabetic rats were orally administered with compound 38 or 47 of the present invention for 2 weeks. The rats were deprived of food 4 hrs before the last administration, and 6 hrs after the last administration, blood samples were collected from the orbital vein. Serum total ketone body (KB) levels were determined by the enzymatic method with an autoanalyzer (Cobas Fara®, Roche). In this experiment, serum total ketone body levels in streptozotocin-diabetic rats increased by 92 % of normal rats in the mean value.

Another data set has as its system Normal Rats. In words: Hypoglycemic Effects in Normal Rats (Experimental Example 6). It is filed as in vivo, rat (male Wistar). To be noted: normal animals. The method, then:
Groups of 5 male Wistar rats, after being fasted for 4 hrs, where orally administered with compound 38 or 47 of the present invention or gliclazide. Blood samples were collected from the orbital vein before, 1 hr and 6 hrs after the administration. Serum glucose levels were determined by the enzymatic method with an autoanalyzer (Cobas Fara®, Roche).

Data set [5] deals with Streptozotocin-Diabetic Rats. Briefly: Hypolipidemic Effects in Streptozotocin-Diabetic Rats (Experimental Example 7). Type of data set: in vivo, rat (male Wistar). The following applies: STZ-diabetic rats, 100 mg/kg oral for 2 weeks. The procedure:
as §1
as §2, with “invention at a dose of 100 mg/kg” for “invention”, “triglyceride (TG), non-esterified fatty acid (NEFA) and cholesterol (CHOL)” for “total ketone body (KB)”, “experiment, each parameters of” for “experiment,”, “lipids” for “total ketone body levels”, “40” for “92”

In general, pIC50 refers to −log10 of the IC50, conventionally taken in molar units. A high value points to a small IC50. `O=C1CN(S(=O)(=O)c2ccc3ccccc3c2Cl)C(=O)N1` [Compound 1, 1-(1-chloronaphthalen-2-ylsulfonyl)hydantoin] showed a pIC50 in data set [1] of 6.54. The inhibition in vivo at 100 mg/kg in data set [2] is 37.2%.
On to `O=C1CN(S(=O)(=O)c2ccc3c(Cl)cccc3c2)C(=O)N1` [Compound 3, 1-(5-chloronaphthalen-2-ylsulfonyl)hydantoin], for which the pIC50 in data set [1] is 6.72. Moreover, the inhibition in vivo at 100 mg/kg in data set [2] came out at 19%.
Compound `O=C1CN(S(=O)(=O)c2cc3ccc(Cl)cc3cc2Cl)C(=O)N1` [Compound 7, 1-(3,6-dichloronaphthalen-2-ylsulfonyl)hydantoin] gave a pIC50 in data set [1] of 6.62. Moreover, in the data set with ICR strain mice, the “acute toxicity: change observed over the one-week period after administration” value (shortened to “acute toxicity: change observed”) was “no change was observed”. Moreover, the inhibition in vivo at 100 mg/kg in data set [2] was 23.2%.
For `O=C1CN(S(=O)(=O)c2cc3ccccc3cc2Br)C(=O)N1` [Compound 9, 1-(3-bromonaphthalen-2-ylsulfonyl)hydantoin], in data set [1], the pIC50 was 6.46. Moreover, the inhibition in vivo at 100 mg/kg in data set [2] was 17.4%.
For the compound `Cc1ccc2cc(S(=O)(=O)N3CC(=O)NC3=O)ccc2c1[N+](=O)[O-]` [Compound 13, 1-(6-methyl-5-nitronaphthalen-2-yl-sulfonyl)hydantoin], in data set [1], the pIC50 is 7.57 and the “potency relative to reference compound A” value is “ten times or more potent”. The “inhibitory activity against aldose reductase compared with reference compound B” value in data set [3] (in words) is listed as “stronger inhibitory activities against aldose reductase”. Also, the pIC50 in data set [3] is 7.00.
In the same order, the values of `COc1ccc2cc(S(=O)(=O)N3CC(=O)NC3=O)ccc2c1[N+](=O)[O-]` [Compound 15, 1-(6-methoxy-5-nitronaphthalen-2-yl-sulfonyl)hydantoin] are 7.42, “ten times or more potent”, “stronger inhibitory activities against aldose reductase” and 6.64.
`O=C1CN(S(=O)(=O)c2cc3ccccc3o2)C(=O)N1` [Compound 19, 1-(benzo[b]furan-2-ylsulfonyl)hydantoin]: the “acute toxicity: change observed” value in the data set with ICR strain mice is reported as “no change was observed”. Also, the inhibition in vivo at 100 mg/kg in data set [2] was 52.1%.
The compound `O=C1CN(S(=O)(=O)c2cc3cc(Cl)ccc3o2)C(=O)N1` [Compound 20, 1-(5-chlorobenzo[b]furan-2-ylsulfonyl)hydantoin] had a pIC50 in data set [3] of 6.44. For the same compound, in the data set with ICR strain mice, the “acute toxicity: change observed” value is given as “no change was observed”. In addition, in data set [2], the inhibition in vivo at 100 mg/kg is 12.8%.
For `O=C1CN(S(=O)(=O)c2cc3cc(Br)ccc3o2)C(=O)N1` [Compound 21, 1-(5-bromobenzo[b]furan-2-ylsulfonyl)hydantoin], in that order: 6.52, “no change was observed” and 22.3%.
As for `O=C1CN(S(=O)(=O)c2cc(Cl)sc2Cl)C(=O)N1` [Compound 24, 1-(2,5-dichlorothiophen-3-ylsulfonyl)hydantoin], the “potency compared with compound 13 and 15” value in data set [3] (in words) was “as potent as compound 13 and 15”. The pIC50 in data set [3] was 6.54. Moreover, in the data set with ICR strain mice, the “acute toxicity: change observed” value is recorded as “no change was observed”.
`O=C1CN(S(=O)(=O)c2oc3ccccc3c2Br)C(=O)N1` [Compound 38, 1-(3-bromobenzo[b]furan-2-ylsulfonyl)hydantoin] had a pIC50 in data set [3] of 6.80. In the data set on ICR strain mice, the “acute toxicity: change observed” value is recorded as “no change was observed”. In addition, the inhibition in vivo at 100 mg/kg in data set [2] came to 33.5%. Also, the “lowering of serum total ketone body levels (in words)” value in data set [4] is “lowering activity of serum total ketone body levels”. Also, in the data set with Normal Rats, the “influence on serum glucose level of normal rats (in words)” value (“influence on serum glucose level” for short) is given as “lesser influences on serum glucose level of normal rats”. The “lowering of serum lipid levels (in words)” value in data set [5] is “lowering activities of serum triglyceride, non esterified fatty acid and cholesterol levels”.
For the compound `O=C1CN(S(=O)(=O)c2cc3c(Cl)cccc3s2)C(=O)N1` [Compound 40, 1-(4-chlorobenzo[b]thiophen-2-yl-sulfonyl)hydantoin], the pIC50 in data set [3] is 6.77. For the same compound, the “acute toxicity: change observed” value with ICR strain mice was “no change was observed”. Besides, the inhibition in vivo at 100 mg/kg in data set [2] was determined as 11%.
Take `O=C1CN(S(=O)(=O)c2cc3c(Cl)c(Cl)ccc3o2)C(=O)N1` [Compound 44, 1-(4,5-dichlorobenzo[b]furan-2-yl-sulfonyl)hydantoin]: in data set [3], the pIC50 is 7.21. The “acute toxicity: change observed” value with ICR strain mice is on record as “no change was observed”. Also, in data set [2], the inhibition in vivo at 100 mg/kg amounted to 21.1%.
In the same order, the values of `O=C1CN(S(=O)(=O)c2cc3cc(Cl)c(Cl)cc3o2)C(=O)N1` [Compound 45, 1-(5,6-dichlorobenzo[b]furan-2-yl-sulfonyl)hydantoin] are 7.08, “no change was observed” and 28.5%.
Regarding `O=C1CN(S(=O)(=O)c2oc3ccccc3c2Cl)C(=O)N1` [Compound 47, 1-(3-chlorobenzo[b]furan-2-ylsulfonyl)hydantoin], the inhibition in vivo at 100 mg/kg in data set [2] came to 44.7%. Moreover, the “lowering of serum total ketone body levels (in words)” value in data set [4] is reported as “lowering activity of serum total ketone body levels”. Also, the “influence on serum glucose level” value in the data set on Normal Rats is recorded as “lesser influences on serum glucose level of normal rats”. For the same compound, the “lowering of serum lipid levels (in words)” value in data set [5] was “lowering activities of serum triglyceride, non esterified fatty acid and cholesterol levels”.
As to `Cc1ccc(S(=O)(=O)NC(=O)NN2CC3CCCC3C2)cc1` (centres unmarked) [Compound C, gliclazide, reference compound], in data set [2], the inhibition in vivo at 100 mg/kg came out at 11% and the “hypoglycemic activity in diabetic animals (in words)” value is “less potent hypoglycemic activity than all compounds of the present invention”. Also, in the data set on Normal Rats, the “influence on serum glucose level” value was “significantly lowered serum glucose level of normal rats; also recorded: remarkable hypoglycemic activity in normal animals”.
